Results as given in ChEMBL document CHEMBL1201862, “PubChem BioAssay data set” (2004).
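Following 48 hours of exposure in 96-well plates, responses at five concentrations were used to interpolate endpoints linearly. Abbreviation: GI50, concentration required for 50% inhibition of growth.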 Active and inactive are the calls of the source. Rule as the data show it: active = GI50 up to about 1.1 µM and inactive = higher.

Key:
Assay in all cases: NCI anticancer screen, dose series, 48 h
[1] = system: HT-29
[2] = system: A498
[3] = system: RPMI-8226
[4] = system: SK-MEL-5
[5] = system: RXF 393
[6] = system: K562
[7] = system: HCT-116
[8] = system: SF-268
[9] = system: SF-295
[10] = system: SNB-19
[11] = system: EKVX
[12] = system: NCI/ADR-RES
[13] = system: SR
[14] = system: SK-MEL-2
[15] = system: COLO 205
[16] = system: SW-620
[17] = system: OVCAR-3
[18] = system: T47D
[19] = system: A549
[20] = system: HOP-92

Row | Compound | GI50 [1] | GI50 [2] | GI50 [3] | GI50 [4] | GI50 [5] | GI50 [6] | GI50 [7] | GI50 [8] | GI50 [9] | GI50 [10] | GI50 [11] | GI50 [12] | GI50 [13] | GI50 [14] | GI50 [15] | GI50 [16] | GI50 [17] | GI50 [18] | GI50 [19] | GI50 [20]
1 | CCOC(=O)c1cc2c3c(c(C(C)=O)c(O)c2[nH]1)N(C(C)=O)CC3 | > 100 µM (inactive) | 52.5 µM (inactive) | 19.3 µM (inactive) | 52.7 µM (inactive) | 21.7 µM (inactive) | 26.9 µM (inactive) | 68.4 µM (inactive) | 55.8 µM (inactive) | 52.7 µM (inactive) | > 100 µM (inactive) | 61 µM (inactive) | 29.9 µM (inactive) | 50.6 µM (inactive) | > 100 µM (inactive) | 63.2 µM (inactive) | > 100 µM (inactive) | 34 µM (inactive) | 46.7 µM (inactive) |  | 
2 | O=C1CSC(c2c(O)ccc3ccccc23)N1n1c(S)nnc(/C=C/c2c(O)ccc3ccccc23)c1=O (centres undefined) | 1.27 µM (inactive) | 2.76 µM (inactive) | 1.26 µM (inactive) |  | 1.45 µM (inactive) | 0.521 µM (active) | 0.359 µM (active) | 0.771 µM (active) | 6.71 µM (inactive) | 1.69 µM (inactive) | 6.15 µM (inactive) | 0.851 µM (active) | 0.51 µM (active) | 1.17 µM (inactive) |  | 0.753 µM (active) | 0.387 µM (active) | 0.59 µM (active) | 1.32 µM (inactive) | 16.3 µM (inactive)
3 | NCCC1(N)CCNCC1 | > 100 µM (inactive) | > 100 µM (inactive) | > 100 µM (inactive) | > 100 µM (inactive) | > 100 µM (inactive) | > 100 µM (inactive) | > 100 µM (inactive) | > 100 µM (inactive) | > 100 µM (inactive) | > 100 µM (inactive) | > 100 µM (inactive) | > 100 µM (inactive) | > 100 µM (inactive) | > 100 µM (inactive) | > 100 µM (inactive) | > 100 µM (inactive) |  | > 100 µM (inactive) | > 100 µM (inactive) | < 0.01 µM (active)
4 | C=CCn1c(N)c(C#N)c(C#N)c1-c1ccccc1 | > 100 µM (inactive) | > 100 µM (inactive) | > 100 µM (inactive) | > 100 µM (inactive) | > 100 µM (inactive) | > 100 µM (inactive) |  | > 100 µM (inactive) | > 100 µM (inactive) | > 100 µM (inactive) | 57.7 µM (inactive) | > 100 µM (inactive) | > 100 µM (inactive) | 26.8 µM (inactive) | > 100 µM (inactive) | > 100 µM (inactive) | > 100 µM (inactive) | > 100 µM (inactive) | > 100 µM (inactive) | > 100 µM (inactive)
5 | COC(=O)C1(Cc2ccc3c(c2)CCC3)Cc2ccccc2C1=O (centres undefined) | 5.46 µM (inactive) | 18.4 µM (inactive) | 9.91 µM (inactive) | 4.3 µM (inactive) |  | 3.31 µM (inactive) | 7.8 µM (inactive) | 22.1 µM (inactive) | 9.98 µM (inactive) | 20.7 µM (inactive) | 17.3 µM (inactive) | 7.06 µM (inactive) | 6.47 µM (inactive) | 13.2 µM (inactive) | 9.66 µM (inactive) | 4.49 µM (inactive) | 14.5 µM (inactive) | 19.3 µM (inactive) | 21.1 µM (inactive) | 
6 | CCOC(=O)C1CCC(=O)N1C(=O)c1ccccc1Cl (centres undefined) | > 100 µM (inactive) | > 100 µM (inactive) | > 100 µM (inactive) | > 100 µM (inactive) | > 100 µM (inactive) | > 100 µM (inactive) | > 100 µM (inactive) | > 100 µM (inactive) | > 100 µM (inactive) | > 100 µM (inactive) | > 100 µM (inactive) | > 100 µM (inactive) | > 100 µM (inactive) |  |  | > 100 µM (inactive) | > 100 µM (inactive) | > 100 µM (inactive) | > 100 µM (inactive) | > 100 µM (inactive)
7 | CSc1nncc2[nH]cnc12 | > 100 µM (inactive) | > 100 µM (inactive) | > 100 µM (inactive) | > 100 µM (inactive) | > 100 µM (inactive) | > 100 µM (inactive) | > 100 µM (inactive) | > 100 µM (inactive) | > 100 µM (inactive) | > 100 µM (inactive) | > 100 µM (inactive) | > 100 µM (inactive) | > 100 µM (inactive) | > 100 µM (inactive) | > 100 µM (inactive) | > 100 µM (inactive) | > 100 µM (inactive) | > 100 µM (inactive) | > 100 µM (inactive) | 
